Structures can show the parent of a compound that is named as a salt.
Legend:
[1] = test system: Trx9 cells (MCF-7 clones expressing thioredoxin); assay: Superoxide production in cell lysate by SOD-inhibitable reduction of ferricytochrome c; assay type: biochemical, human; settings: Trx9 compared to vector-transfected cells; 10 μM drug
Experimental: Determination of superoxide production by reduction of ferricytochrome c. Superoxide production was measured as superoxide dismutase (SOD) inhibitable reduction of ferricytochrome c (Azzi et al. 1975). Cells were sonicated in potassium phosphate buffer (0.05M, pH 7.8 plus 1 mM EDTA), centrifuged and the supernatant was used for the assay. To determine the superoxide generation in the cell lysate, the supernatant was incubated with 10 μM drug and 10 μM cytochrome c, with or without 1U SOD to determine SOD inhibitable rate. The specificity of thioredoxin mediated superoxide generation in the supernatant was detected by pre-incubation of cell lysates with anti-human thioredoxin antibody (American Diagnostica, Greenwich, Conn.) for 15 min. All reactions were performed in triplicate. The reduction of ferricytochrome c was measured both in kinetic and end point mode with path check on for 1 hr duration at a wavelength of 550 nm using a Spectramax 190 plate reader (Molecular Devices). Total protein was quantified using Bradford protein assay (Biorad) and the superoxide generation was determined per milligram of protein in the extracts.

[2] = test system: Trx9 cells (MCF-7 clones expressing thioredoxin); assay: In situ detection of ROS by DCF-DA fluorescence; assay type: cell-based, human; settings: Trx9 compared to vector cells
Experimental: In situ detection of superoxide by fluorescent probe DiCarboxyFluorescein-DiAcetate (DCF-DA). Cells were grown in chambered glass slides (Nunc) to a final density of 25,000 cells per well.

[3] = molecular target: T1, E. coli thioredoxin reductase-thioredoxin system (Escherichia coli, UniProt P0A9P4); assay: Superoxide detection by cytochrome c reduction assay with thioredoxin system; assay type: biochemical
T1 construct: purchased American Diagnostica Inc (thioredoxin reductase); Promega Inc (thioredoxin)
T1 sequence (P0A9P4 2-321): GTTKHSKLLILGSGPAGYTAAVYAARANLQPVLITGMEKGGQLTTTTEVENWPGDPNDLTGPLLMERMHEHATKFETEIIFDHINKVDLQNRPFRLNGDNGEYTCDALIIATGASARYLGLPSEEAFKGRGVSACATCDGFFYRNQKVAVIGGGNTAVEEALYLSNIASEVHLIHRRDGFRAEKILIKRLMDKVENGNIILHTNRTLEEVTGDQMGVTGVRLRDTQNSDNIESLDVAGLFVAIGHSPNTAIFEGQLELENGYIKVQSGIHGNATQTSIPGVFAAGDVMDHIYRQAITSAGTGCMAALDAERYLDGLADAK
Experimental: Superoxide detection by cytochrome c reduction assay. Superoxide (O2—) generated in the process of redox-cycling was detected by SOD inhibitable rate of ferricytochrome c reduction (Das et al., 2000). The reaction mixture contained 0.05 M potassium phosphate buffer (pH 7.78), 1 mM EDTA, 10 μM cytochrome c and 200 μM NADPH. […] The rate of […] of cytochrome c was measured at 550 nm for 0-15 minutes using Shimadzu UV-1601PC in kinetic mode. Reaction blank contained potassium phosphate buffer, cytochrome c and NADPH with or without SOD, and controls included 0.35-0.7 μg TR and /or Trx in buffer. All reactions were performed in triplicate.

E. coli thioredoxin = molecular target: T2, E. coli thioredoxin (Escherichia coli, UniProt P0AA25); assay: Thioredoxin redox state by carboxymethylation and western analysis; assay type: biochemical; settings: TR and doxorubicin
T2 construct: purchased Promega Inc (thioredoxin); American Diagnostica Inc (thioredoxin reductase)
T2 sequence (P0AA25 2-109): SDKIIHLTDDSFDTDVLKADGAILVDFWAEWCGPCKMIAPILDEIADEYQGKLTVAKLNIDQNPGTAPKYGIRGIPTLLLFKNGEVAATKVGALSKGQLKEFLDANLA
Experimental: Carboxymethylation of thioredoxin. In order to analyze the possible role of thioredoxin in the redox-cycling of anthracyclines the redox status of thioredoxin was determined by carboxymethylation at the end of assay. Carboxymethylation was done as described previously (Das et al., 1997). Equal volume of carboxymethylation buffer (0.1 M Tris; pH 8.8, 12 mg/ml iodoacetic acid, 3 mM EDTA, 7 M guanidine hydrochloride, and 0.5% Triton X-100, equilibrated with nitrogen for 1 h) was added and incubated at 37° C. in the dark for 45 min. After incubation the excess reagent was removed using Sephadex G-25 spin column, and the elute was used for western blot detection of thioredoxin.
Western analysis of thioredoxin redox state. […] The protein was transferred to PVDF membrane using a miniprotein transblot apparatus (Bio-Rad). The PVDF membrane was washed and incubated with mouse anti-E. coli Trx IgG (MBL, Nagoya, Japan). After washing, the blot was incubated with anti Mouse IgG- horseradish peroxidase conjugate for 1 h at room temperature. Binding of secondary antibody was detected using an enhanced chemiluminescence (ECL Plus) detection system (Amersham Pharmacia Biotech, Piscataway, N.J.). Western blot was quantified using densitometric analysis software (NIH Image 1.61).

[4] = molecular target: T3, cytochrome P450 reductase (Oryctolagus cuniculus, UniProt P00389); assay: Cytochrome P450 reductase mediated SOD-inhibitable superoxide generation; assay type: biochemical, rabbit; settings: 10 μM doxorubicin, Trx-SH alone as electron donor, absence of NADPH
T3 construct: purchased Sigma Chemicals (St. Louis, Mo.); host or cells: rabbit liver
T3 sequence (P00389 1-679): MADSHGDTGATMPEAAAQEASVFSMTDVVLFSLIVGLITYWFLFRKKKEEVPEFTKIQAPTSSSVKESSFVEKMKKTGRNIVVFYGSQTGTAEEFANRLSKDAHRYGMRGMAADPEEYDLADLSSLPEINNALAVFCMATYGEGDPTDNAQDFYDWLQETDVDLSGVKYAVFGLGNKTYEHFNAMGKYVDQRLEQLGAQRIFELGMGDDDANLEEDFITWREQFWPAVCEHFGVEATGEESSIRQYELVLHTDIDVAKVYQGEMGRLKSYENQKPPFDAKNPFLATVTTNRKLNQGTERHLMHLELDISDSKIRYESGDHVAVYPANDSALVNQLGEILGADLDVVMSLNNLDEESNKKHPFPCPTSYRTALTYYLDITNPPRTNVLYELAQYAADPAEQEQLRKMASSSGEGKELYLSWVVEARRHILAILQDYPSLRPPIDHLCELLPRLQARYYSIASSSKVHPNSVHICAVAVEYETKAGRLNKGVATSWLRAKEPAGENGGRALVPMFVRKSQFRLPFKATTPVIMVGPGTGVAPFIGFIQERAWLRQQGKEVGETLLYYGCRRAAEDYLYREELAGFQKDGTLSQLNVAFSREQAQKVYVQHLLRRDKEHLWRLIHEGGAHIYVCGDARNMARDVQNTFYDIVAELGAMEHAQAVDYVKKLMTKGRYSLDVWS
Experimental: Superoxide detection by cytochrome c reduction assay. Superoxide (O2—) generated in the process of redox-cycling was detected by SOD inhibitable rate of ferricytochrome c reduction (Das et al., 2000). […] Reaction blank contained potassium phosphate buffer, cytochrome c and NADPH with or without SOD, and controls included 0.35-0.7 μg TR and /or Trx in buffer. All reactions were performed in triplicate.

[5] = cited from earlier work
A549 cells [6] = assay: ROS detection by DCF-DA fluorescence; assay type: cell-based, human
Experimental: In situ detection of superoxide by fluorescent probe DiCarboxyFluorescein-DiAcetate (DCF-DA). […] Cells were pre-incubated with 20 μM DCF-DA (Sigma, St. Louis, Mo.) in 20 mM Hepes in Phosphate Buffered Saline (PBS) containing bovine serum albumin (BSA, 5 mg/ml) at 37° C. for 30 min followed by washing with PBS buffer, and the drug was added and observed for 10-15 min in a Nikon laser confocal microscope using laser beam wavelength 488 nm analyzed by Ultraview software (Perkin-Elmer).

p53 in A549 cells = assay: EMSA of p53 DNA binding; assay type: cell-based, human; settings: E. coli Trx 32 μM 16 h followed by daunomycin 1 μM 4 h
Experimental: Nuclear Extract preparation. Nuclear extract was prepared as described previously (Das, 2001). […] The extracts were then centrifuged at 14,000 rpm for 25 min and the supernatant was saved as nuclear extract in −70° C. for further experiments. Protein was quantified using Bradford protein assay (Biorad).
Electrophoretic Mobility shift assay (EMSA). For the EMSA the p53 consensus oligonucleotide was obtained from Genosys 5′-[…]-3′ (SEQ ID NO:9) and end labeled using T4 Poly nucleotide kinase (New England Biolabs, Beverly, Mass.) and [γ-^32P] ATP (Perkin Elmer, Boston, Mass.) in 10× kinase buffer supplied with the enzyme. […] The nuclear protein was separated by electrophoresis using 4% native polyacrylamide gel and 0.25× of TBE (Tris-Borate-EDTA) as running buffer. The gels were dried and exposed to Kodax Biomax X-ray film overnight.

A549 cells [7] = settings: E. coli thioredoxin 32 μM 16 hr followed by daunomycin 1 μM 4 hr
Excerpt: TUNEL assay. Apoptotic cells were detected using In Situ Cell Death detection, POD kit (Roche Molecular Biochemicals, Indianapolis, Ind.). Apoptotic DNA strand breaks were identified by labeling 3′-OH termini with fluorescein-dUTP using Terminal deoxy Transferase as per manufacturer's protocol. For this assay cells were allowed to adhere overnight in chambered glass slides (Nunc) to a final density of 25,000 cells per well. Followed by treatment with the appropriate concentration of drugs the media was removed and washed twice with PBS containing 1% BSA and the cells fixed in 4% paraformaldehyde for 30 min and washed with PBS containing 1% BSA. The cells were then permeabilized with 0.1% Triton X-100 in 0.1% sodium citrate for 2 min on ice and washed twice with PBS containing 1% BSA. The labeling reaction was performed using FITC labeled dUTP along with other nucleotides by terminal deoxynucleotidyl transferase for 60 mins in dark at 37° C. in humidified chamber. The cells were washed with PBS-1% BSA, mounted onto a slide, and the incorporated fluorescein-dUTP was analyzed using Nikon laser confocal microscope.

[8] = molecular target: T4, human thioredoxin reductase (Homo sapiens, UniProt Q16881); settings: cited from earlier work
T4 sequence (Q16881 151-649 limits assumed): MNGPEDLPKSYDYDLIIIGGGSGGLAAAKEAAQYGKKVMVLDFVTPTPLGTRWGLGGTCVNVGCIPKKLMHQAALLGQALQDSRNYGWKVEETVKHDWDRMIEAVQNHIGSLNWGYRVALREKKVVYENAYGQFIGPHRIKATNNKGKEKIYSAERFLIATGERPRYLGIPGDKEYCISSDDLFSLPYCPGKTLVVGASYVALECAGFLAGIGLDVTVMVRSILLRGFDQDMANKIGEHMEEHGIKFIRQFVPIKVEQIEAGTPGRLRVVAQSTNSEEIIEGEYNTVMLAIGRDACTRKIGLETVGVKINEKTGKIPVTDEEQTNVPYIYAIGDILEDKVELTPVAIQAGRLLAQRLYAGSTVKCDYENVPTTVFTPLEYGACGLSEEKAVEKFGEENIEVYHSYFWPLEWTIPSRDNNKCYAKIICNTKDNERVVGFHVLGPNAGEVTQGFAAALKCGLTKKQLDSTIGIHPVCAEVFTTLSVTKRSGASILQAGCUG

Compound | O2— production [1] | DCF-DA fluorescence (oxidation of DCF-DA) [2] | levels of O2— generated ([3]; drug 10 μM with thioredoxin reductase alone) | SOD inhibitable rate of ferricytochrome c reduction ([3]; drug alone, 10 μM) | rate of superoxide generation as compared to daunomycin ([3]; thioredoxin reductase alone or thioredoxin reductase-thioredoxin system, 10 μM drug) | level of Trx-S2 (oxidized thioredoxin) (E. coli thioredoxin; 28.7% without doxorubicin) | level of reduced thioredoxin (E. coli thioredoxin; Trx, 71.3% in thioredoxin-thioredoxin reductase system only) | SOD inhibitable O2— generation [4] | excreted into the urine ([5]; in vivo) | elimination half-life ([5]; intravenous) | absorption ([5]; oral) | levels of O2— generated ([3]; addition of 3.2 μM Trx to thioredoxin reductase with daunomycin or doxorubicin) | rate of O2— generation with doxorubicin ([3]; thioredoxin from 1.6 to 6.4 μM, 0.35 μg thioredoxin reductase, 10 μM doxorubicin) | ROS generation (DCF-DA) (A549 cells [6]; E. coli thioredoxin only (32 μM, 16 hr)) | ROS generation (DCF-DA) (A549 cells [6]; pretreated with E. coli thioredoxin (32 μM, 16 hr) followed by 1 μM daunomycin) | p53 DNA binding (p53 in A549 cells) | TUNEL positive nuclei (A549 cells [7]) | Km as a substrate for human thioredoxin reductase [8]
COc1cccc2c1C(=O)c1c(O)c3c(c(O)c1C2=O)C[C@@](O)(C(=O)CO)C[C@@H]3O[C@H]1C[C@H](N)[C@H](O)[C@H](C)O1 [doxorubicin, 5,12-Naphthacenedione, (8 s-cis)-10-[(3-amino-2,3,6-trideoxy-a-L-lyxo-hexopyranosyl)oxy]-7,8,9,10-tetrahydro-6,8,11-trihydroxy-8-(hydroxyacetyl)-1-methoxy-hydrochloride] | significantly higher level of O2— | enhanced fluorescence | significantly higher levels of O2— | did not show significant level | two fold increase | 53% | 47% | generated O2— | a few percent | about 30 hr | poorly absorbed | – | – | – | – | – | – | –
E. coli thioredoxin: E. coli thioredoxin obtained from Promega; sequence of SEQ ID NO:4 | – | – | – | – | – | – | – | – | – | – | – | further enhanced the levels of O2— | proportional increase in the rate of O2— generation | No ROS were detected | significantly higher level of ROS generation | increased p53 DNA binding | increase in TUNEL positive nuclei | 35 µM

From patent US20050208037A1, “Thioredoxin increases redox-cycling of anticancer agents thereby sensitizes cancer cells to apoptosis” (Board of Regents, The University of Texas System, priority 2003, published 2005)
